# “And” between values parts separate entries of the source, which are not always exact repeats. Equal entries are not always repeated. “Also recorded” adds a separate entry of the source. Where a SMILES comes first, the peptide text is derived from it. [ ]: non-standard residue; d: D form. The star is where a group is joined. Nle = CCCC[C@H](N)C(=O)O; Hexanoyl = CCCCCC(=O)*; Ahx = NCCCCCC(=O)O
# Columns and labels:
# [1] = Toxicity observation during Dihexa studies; type: in vivo; details: studies lasting as long as 96 days
# [2] = Metabolic stability in rat serum; type: in vitro ADME
# hippocampal neurons [3] = assay: Immunocytochemistry: correlation of spines with synaptic markers; type: cell-based, rat; details: 10^−12 M, 5 days
# Experimental: (§1) Transfected neurons were treated, fixed and stained. Briefly, cells were permeablized with 0.1% Triton X-100 detergent (Bio-Rad; Hercules, Calif.) for 10 minutes. An 8% bovine serum albumin (Intergen Company; Burlington, Mass.) in PBS was used to prevent non-specific binding for one hour at R.T.; Primary antibody incubations were at a 1:2500 dilution (see below) in 1% BSA in PBS at 4° C. overnight. Secondary antibody, 1:3000 Alexafluor 488 goat-anti-mouse (Invitrogen: Carlsbad, Calif.) was applied for two hours at room temperature. Coverslips were mounted with ProLong Gold anti-fade reagent (Invitrogen; Carlsbad, Calif.) and all washes were done with PBS. Imaging and analysis were performed as described above. For presynaptic excitatory transmission the VGLUT1 (Synaptic Systems, Goettingen, Germany) marker (Balschun, Moechars et al.) was employed and for general presynaptic transmission synapsin1 (Synaptic Systems, Goettingen, Germany) (Ferreira and Rapoport 2002) was applied. A postsynaptic function was established by PSD-95 (Milipore, Billerica, Mass.) (El-Husseini, Schnell et al. 2000). In each instance the total number of spines was counted for the treatment groups, control, Nle1-AngIV and Dihexa, to ensure an active phenotype. The total number of actin enriched spines adjacent to VGLUT1 or Synapsin were counted and converted to a percentage as the percent correlation of treatment-induced spines to presynaptic markers is a strong indicator of ability to transmit excitatory signals.
# as §1, with “fixed and stained as previously described in Chapter two. Briefly, cells” for “fixed and stained. Briefly, cells”, “enriched spines (red) adjacent to” for “enriched spines adjacent to”
# Blood stability studies = details: not shown
# [4] = Phase I metabolism of Dihexa; type: in vitro ADME
# [5] = Brain distribution of 3H-Dihexa after carotid infusion; type: in vivo, rat
# Experimental: FIG. 44. […] Rats fitted with a carotid cannula were anesthetized and infused with 0.5 ml of isotonic saline containing 10 μCi of 3H-Dihexa and 2 μCi ^14C-Inulin, a vascular marker. Thirty minutes after infusion rats were decapitated, the brains removed, and various brain regions dissected. The tissues were then weighed and solubilized with NCS and 10 ml of scintillation was added. Samples were counted with a scintillation counter using two different windows to quantitate both ^3H and ^14C counts. ^3H/^14Cs were determined so that blood derived Dihexa contamination of tissues could be determined. The average ^3H/^14C from blood was 1687.
# rats = assay: Morris water maze with i.c.v. Dihexa and HGF antagonist Hinge; type: in vivo, rat; details: scopolamine treated rats
# MDCK cells = assay: Augmentation of HGF-dependent cell scattering in MDCK cells; type: cell-based, canine; details: with HGF, Dihexa 10^−10 M to 10^−14M, four days
# Experimental: augmentation of HGF-dependent c-Met phosphorylation in HEK293 cells, or 2) augmentation of HGF-dependent cell scattering in MDCK cells. All the compounds in Family one were tested using the c-Met phosphorylation assay. […]
# MDCK cells were grown to 100% confluency on the coverslips in six-well plates and washed twice with PBS. The confluent coverslips were then aseptically transferred to new six well plates containing 900 μl serum free DMEM. Norleual, Hinge peptide, and/or HGF (2.5 ng/ml) were added to appropriate wells. Control wells received PBS vehicle. […] Media was removed and cells were fixed with methanol. Cells were stained with Diff-Quik Wright-Giemsa (Dade-Behring, Newark, Del.) and digital images were taken. Coverslips were removed with forceps and more digital images were captured. Pixel quantification of images was achieved using Image J and statistics were performed using Prism 5 and InStat v.3.05.
# MDCK cells were grown to 100% confluency on the coverslips in six-well plates and washed twice with PBS. The confluent coverslips were then aseptically transferred to new six well plates containing 900 μl serum free DMEM. Norleual, Hinge peptide, and/or HGF (20 ng/ml) were added to appropriate wells. Control wells received PBS vehicle. […] Pixel quantification of images was achieved using Image J and statistics were performed using Prism 5 and InStat v.3.05.
# scopolamine treated rats = assay: Morris water maze, scopolamine amnesia model; details: scopolamine ICV
# Experimental: Male Sprague-Dawley rats (Taconic derived) weighing 390-450 g were maintained with free access to water and food (Harland Tekland F6 rodent diet, Madison, Wis.) except the night prior to surgery when food was removed. Each animal was anesthetized with Ketamine hydrochloride plus Xylazine (100 and 2 mg/kg im. respectively; Phoenix Scientific; St. Joseph, Mo., and Moby; Shawnee, Kans.). […] The guide cannula measured 2.5 cm in overall length and was prepared with a heat bulge placed 2.5 mm from its beveled tip, thus acting as a stop to control the depth of penetration. Once in position, the cannula was secured to the skull with two stainless-steel screws and dental cement. Post-operatively the animals were housed individually in an American Accreditation for Laboratory Animal Care-approved vivarium maintained at 22±1° C. on a 12-h alternating light/dark cycle initiated at 06:00 h. All animals were hand gentled for 5 min per day during the 5-6 days of post-surgical recovery. Histological verification of cannula placement was accomplished by the injection of 5 μl fast-green dye via the guide cannula following the completion of behavioral testing.
# A black circular platform (diameter: 12 cm; height: 24 cm) was placed 30 cm from the wall and submerged 2 cm below the water surface. The maze was operationally sectioned into four equal quadrants designated NW, NE, SW, and SE. For each rat the location of the platform was randomly assigned to one of the quadrants and remained fixed throughout the duration of training. Entry points were at the quadrant corners (i.e. N, S, E, and W) and were pseudo-randomly assigned such that each trial began at a different entry point than the preceding trial. Three of the four testing room walls were covered with extra-maze spatial cues consisting of different shapes (circles, squares, triangles) and colors. The swimming path of the animals was recorded using a computerized video tracking system (Chromotrack; San Diego Instruments, CA). […] Swim speed was determined from these values.
# Each member of the treatment groups in the scopolamine studies received an icy injection of scopolamine hydrobromide (70 nmol in 2 μl aCSF over a duration of 20 s) 30 min prior to testing followed by Dihexa 10 min prior to testing. Control groups received scopolamine or aCSF 20 min prior to testing followed by aCSF 10 min prior testing. […] The rats in the aged rat study on received Dihexa of aCSF (control group). Briefly, acquisition trials were conducted on 8 consecutive days with 5 trials/day. On the first day of training the animal was placed on the platform for 30 s prior to the first trial. Trials commenced with the placement of the rat facing the wall of the maze at one of the assigned entry points. […] Once the animal located the platform it was permitted a 30 s rest period on the platform. […] The next trial commenced immediately following the rest period.
# Following day 8 of acquisition training, one additional trial was conducted during which the platform was removed (probe trial). […] Total time spent within the target quadrant where the platform had been located during acquisition and the number of crossings of that quadrant was recorded.
# hippocampal neurons [6] = assay: Immunocytochemistry: correlation of spines with synaptic markers; type: cell-based, rat; details: HGF 10 ng/ml
compound,measurement,setting,value
"CCCCCC(=O)N[C@@H](Cc1ccc(O)cc1)C(=O)N[C@H](C(=O)NCCCCCC(N)=O)[C@@H](C)CC [Dihexa, N-hexanoic-Tyr-Ile-(6)-aminohexanoic amide] (Hexanoyl-Tyr-Ile-[Ahx]-NH2)",Overt toxicity,[1],no overt toxicity
same,t1/2 in rat serum,[2],5.5 h
same,% Correlation PSD-95,hippocampal neurons [3],98.71%
same,% Correlation Synapsin,hippocampal neurons [3],96.3%
same,% Correlation VGLUT1,hippocampal neurons [3],94.4%
same,Number of spines/50 μm (PSD-95 experiment),hippocampal neurons [3],43 spines/50 μm
same,Number of spines/50 μm (Synapsin experiment),hippocampal neurons [3],37 spines/50 μm
same,Number of spines/50 μm (VGLUT1 experiment),hippocampal neurons [3],44.2 spines/50 μm and 44 spines/50 μm
same,Time stable in the blood,Blood stability studies,over 5 hours
same,Phase I metabolism,[4],resistant to phase I metabolism; also recorded: undergoes little phase I metabolism
same,Distribution into brain regions,[5]; thirty minutes after carotid infusion of 3H-Dihexa with 14C-Inulin,concentrated in multiple brain regions
same,Brain level relative to blood,[5]; thirty minutes after delivery,40 × blood
same,Average 3H/14C from blood,[5]; thirty minutes after infusion,1687
same,"Mean latency to find the pedestal, day one",rats,115.2 s
same,"Mean latency to find the pedestal, final day (day 8)",rats,62.3 s
same,"Mean latency to find the pedestal, fourth day",rats,63.0 s
same,HGF-dependent MDCK cell scattering,MDCK cells,stimulate MDCK cell scattering; also recorded: markedly stimulates cell scattering even at picomolar affinities
same,HGF-dependent MDCK cell scattering,MDCK cells; listed as N-hexanoyl-Tyr-Ile-(6) aminohexamide,spectacularly augment HGF-dependent MDCK cell scattering
same,Water maze latency to find the pedestal: reversal of scopolamine deficits,"scopolamine treated rats; Dihexa ICV high dose (100 μmoles, 100 pmoles elsewhere in the source), 5 trials/day, 8 days",reversed scopolamine-dependent learning deficits; also recorded: completely overcome the scopolamine deficits
same,Water maze latency to find the pedestal: reversal of scopolamine deficits,scopolamine treated rats; Dihexa ICV low dose 10 μmoles,not 10 μmoles reversed scopolamine-dependent learning deficits
same,Water maze latency to find the pedestal: reversal of scopolamine deficits,scopolamine treated rats; Dihexa IP 0.5 mg/kg (high dose),completely reverse the deficit seen with scopolamine
same,Water maze latency to find the pedestal: reversal of scopolamine deficits,"scopolamine treated rats; Dihexa orally 2 mg/kg/day (high dose), 2 mg/kg/day",no different than controls; also recorded: completely overcome the scopolamine deficits; also recorded: completely reverse the deficit seen with scopolamine; also recorded: completely reverse the deficit produced by scopolamine
"CCCC[C@H](N)C(=O)N[C@@H](Cc1ccc(O)cc1)C(=O)N[C@H](C(=O)N[C@@H](Cc1c[nH]cn1)C(=O)N1CCC[C@H]1C(=O)N[C@@H](Cc1ccccc1)C(=O)O)[C@@H](C)CC [Nle1-AngIV, reference compound] (H-[Nle]YIHPF-OH; N-terminus and C-terminus assumed)",% Correlation PSD-95,hippocampal neurons [3],97.38%
same,% Correlation Synapsin,hippocampal neurons [3],94.2%
same,% Correlation VGLUT1,hippocampal neurons [3],95.1%
same,Number of spines/50 μm (PSD-95 experiment),hippocampal neurons [3],36 spines/50 μm
same,Number of spines/50 μm (Synapsin experiment),hippocampal neurons [3],31 spines/50 μm
same,Number of spines/50 μm (VGLUT1 experiment),hippocampal neurons [3],39.4 spines/50 μm and 39 spines/50 μm
"HGF: Hepatocyte growth factor, recombinant, purchased from R&D Systems",Percent correlation of spines to Synapsin,hippocampal neurons [6],98%
same,Mean number of spines per 50 μm dendrite length,hippocampal neurons [6]; 5 days,33 spines per 50 μm dendrite length

# From patent US20140094413A1, “HEPATOCYTE GROWTH FACTOR (HGF) MIMICS AS THERAPEUTIC AGENTS” (WASHINGTON STATE UNIVERSITY, priority 2012, published 2014)
